Experimental data: US20220087970A1, “PREVENTION OF ANESTHETIC-INDUCED NEUROCOGNITIVE DYSFUNCTION” (The Johns Hopkins University, priority 2019, published 2022)

How the values were obtained:
[1] = set-up: species or system mice; details: mouse, in vivo
Procedure: PND7 control and experimental mice were placed in a clear plastic cone and body temperature maintained by a heating blanket set to 35° C. Heart rate (HR) and oxyhemoglobin saturation (SpO2) were continuously monitored using pulse-oximetry (PhysioSuite, Kent Scientific). Arterial blood was collected by terminal cardiac puncture of the left ventricle from sentinels and pH (pHa) determined using a blood gas machine (ABL800 FLEX Series Radiometer). […] Naïve control animals were left with the dams. Control ‘CON’ animals were exposed to oxygen only. Anesthesia was initiated with 2.4% isoflurane in oxygen for 2 min and tapered down to 1.5% within 15 min. Exposure to 1.5% isoflurane was continued for 3 hours and 45 min (total 4 hours ISO). At the end of the exposure animals were maintained in oxygen on the heating blanket for 10 min then returned to dams. […] Tao and Johns, 2008. Purification of fusion peptides was performed by Creative BioMart (Shirley, N.Y.) and verified by Coomassie blue staining and Western blot analysis and then stored in 10% glycerol/phosphate-buffered saline at −80° C. until use. The Tat-PSD-95 PDZ2WT and MUT plasmids used to generate proteins containing an amino-terminal, in-frame, 11-amino-acid, minimal transduction domain (residues 47-57 of human immunodeficiency virus Tat protein) termed Tat. […] Fang et al., 2003. The NO donor Molsidomine [(N-[ethoxycarbonyl]-3-[4-morpholinosydnomine] (Sigma, St. Louis, Mo.) was injected at 4 mg/kg into mice ip in 100 μL sterile saline as previously described. Control animals were injected ip with the vehicle (saline).

[2] = tested on: PSD-95 or PSD-93 and the NMDA receptor or nNOS; details: clinically relevant concentrations; Fang et al., 2003; Tao et al., 2015; cited from earlier work
neuron cultures = test: Neuron cultures, synapses (PSD95/Synaptophysin puncta) at DIV14; type: cell-based; details: isoflurane exposure at DIV7, stained at DIV14
Procedure: Neuron cultures were transfected with GFP-AAV virus at DIV-4 and were exposed to NO donor (DETA) 150 μM and sGC inhibitor (ODQ) 100 μM for 4 hrs right before exposure to gases at DIV7. Cells were returned back to incubator with half media change every second day. At DIV14, cells were fixed and stained with PSD95 and Synaptophysin. […] Scale bar is 5 μm. FIG. 23B: Synapse were analyzed using puncta analyzer plugin as shown in methods section.

GFP+ neurons = details: early exposure to isoflurane, PND30; Kang et al., 2017; cited from earlier work
primary neuron cultures = test: Primary neuron cultures, long thin spines and filopodia at DIV7; type: cell-based; details: 4 hrs: isoflurane 1.5%, PDZ2WT peptide 1 μM or sevoflurane 2.1%
Procedure: Primary neuron cultures were exposed to control gas (25% O2, 5% CO2, bal N2), isoflurane (1.5% ISO in 25% O2, 5% CO2, bal N2), DETA NONOate NO donor 150 μM and sGC inhibitor ODQ 100 μM for 4 hrs. […] MAP2 dendrite marker, green. Drebrin A/E immature spine/filopodia marker, red. Scale bar is 5 μm. FIG. 20B, Density of long thin spines and filopodia at DIV7 among exposed groups analyzed using Imaris 93.1;
MAP2, green. Drebrin, red. Scale bar is 5 μm. FIG. 21B, show the density of long thin spines and filopodia among exposed groups;
Neuron cultures were exposed to control gas (25% O2, 5% CO2, balance N2) or sevoflurane (2.1% ISO in 25% O2, 5% CO2, balanced N2) for 4 hrs. […] Scale bar is 5 μm. FIG. 22B, Density of long thin spines and filopodia among exposed groups; and […]

NR2B = test: Western blot of hippocampal synaptic fractions: NR2B; type: in vivo; details: one day after PND7 mice exposed to isoflurane (1.5% ISO in O2, 4 h)
Procedure: One day after PND7 mice were exposed to isoflurane (1.5% ISO in O2, 4 h), we harvested hippocampal tissues for Western blotting to assess the expression of receptors and MAGUKs. […] (N=9). A *p<0.05 was considered significant. […] Data shown as % actin;

For FC(F)OC(Cl)C(F)(F)F (racemic) [ISO, (RS)-2-chloro-2-(difluoromethoxy)-1,1,1-trifluoroethane], the “arterial blood pH (pHa)” value [1] was 7.26±0.05, the “heart rate (HR)” value [1] was 611±84 and the “oxyhemoglobin saturation (SpO2)” value [1] was 93±6. For the same compound, the “PDZ domain-mediated protein interactions” value [2] was “can disrupt PDZ domain-mediated protein-protein interactions in vitro and in vivo”, the “synapses at DIV14 after exposure” value (neuron cultures) was “loss of synapse” and the “total dendritic length and Sholl analysis of dendritic complexity” value (GFP+ neurons) was “marked overgrowth of dendritic arbors”. The “long thin spines and filopodia at DIV7 after exposure” value (primary neuron cultures) was “loss of long thin and filopodia spines” and the “amount of NR2B in synaptic fractions” value (NR2B) was “significant increase”.
